PubChem BioAssay AID1033 (Sanford-Burnham Center for Chemical Genomics, 2008)
Calls of active or inactive are those of the source. The rule behind the calls is not given here.

The compounds below were run against Chaperone protein DnaK (Escherichia coli (strain K12)) (UniProt P0A6Y8) (assay: binders of DnaK substrate-binding domain, biophysical, NMR, chaperone (AID 1033)). Details: Purified DnaK SBD, NMR ligand binding.
Chaperone protein DnaK (Escherichia coli (strain K12)), sequence (P0A6Y8 whole entry, looked up, the tested form may be a part): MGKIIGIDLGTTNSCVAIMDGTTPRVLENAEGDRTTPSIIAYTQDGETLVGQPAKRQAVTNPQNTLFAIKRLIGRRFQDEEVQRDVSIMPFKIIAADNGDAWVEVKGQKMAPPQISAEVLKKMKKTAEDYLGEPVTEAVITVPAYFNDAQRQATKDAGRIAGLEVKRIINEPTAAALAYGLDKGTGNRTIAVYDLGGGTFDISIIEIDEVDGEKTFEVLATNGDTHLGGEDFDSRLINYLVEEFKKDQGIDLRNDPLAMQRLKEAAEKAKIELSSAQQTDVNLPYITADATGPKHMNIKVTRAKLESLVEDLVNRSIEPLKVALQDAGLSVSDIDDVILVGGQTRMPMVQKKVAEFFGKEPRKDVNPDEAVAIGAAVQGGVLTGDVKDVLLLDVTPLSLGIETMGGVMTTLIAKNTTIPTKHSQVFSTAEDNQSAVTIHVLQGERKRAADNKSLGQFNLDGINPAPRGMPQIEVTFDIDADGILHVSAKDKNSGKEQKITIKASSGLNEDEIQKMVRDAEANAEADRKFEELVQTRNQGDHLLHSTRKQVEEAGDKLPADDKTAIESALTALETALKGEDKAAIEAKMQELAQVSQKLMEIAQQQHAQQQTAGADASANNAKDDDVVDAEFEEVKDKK
`CS/C(N)=C\C(C)=O` was tested, and the Kd was > 4 mM (inactive). In the case of `C(=N\c1ncn[nH]1)/c1cccs1`, the Kd is reported as > 4 mM (inactive). `Cn1nc(C(=O)N2CCCC2)c2ccccc2c1=O` was tested, and the Kd was > 4 mM (inactive). In the case of `C[C@@H]1O[C@@H](O[C@H]2C[C@@H](O)[C@]3(CO)C4C(CC[C@]3(O)C2)[C@@]2(O)CC[C@H](C3=CC(=O)OC3)[C@@]2(C)C[C@H]4O)[C@H](O)[C@H](O)[C@H]1O` (some centres undefined), the Kd is reported as > 4 mM (inactive). With `Cc1ccccc1N1CCN(C(=O)C2CCCCC2)CC1` the Kd was > 4 mM (inactive). For `O=C(O)c1cccnc1N1CCOCC1`, the Kd was > 4 mM (inactive). For `COC(=O)Nc1ccc2ncn(C)c(=O)c2c1`, the Kd was > 4 mM (inactive). In the case of `C=C(C)C1(O)OC(=O)C=C1OC` (centres undefined), the Kd is reported as > 4 mM (inactive). With `CN(C)S(=O)(=O)c1ccccc1C#N` the Kd was > 4 mM (inactive). For `COc1ccc([C@@H](C)C(=O)c2ccc(O)cc2O)cc1`, the Kd was > 4 mM (inactive). With `NCc1ccc(-c2ccccn2)s1` the Kd was > 4 mM (inactive). With `CC(C)CCCC(C)[C@H]1CCC2C3CC[C@H]4CC(=O)CC[C@]4(C)C3CC[C@@]21C` (some centres undefined) the Kd was > 4 mM (inactive). With `CC(C)=CCC[C@](C)(O)C1CC=C(C)CC1` (some centres undefined) the Kd was > 4 mM (inactive). For `O=c1cc(-c2ccc(O)cc2)[nH]c(=S)[nH]1`, the Kd was > 4 mM (inactive). With `CN(C)c1ccc(C2CC(=O)CC(=O)C2)cc1` the Kd was > 4 mM (inactive). In the case of `CC(=O)N=c1cccc(NC(C)=O)n1O`, the Kd is reported as > 4 mM (inactive). For `Cc1cc(O)cc(O)c1C(=O)O`, the Kd was > 4 mM (inactive). In the case of `NCCCCNCCCN`, the Kd is reported as > 4 mM (inactive). In the case of `Cc1c(N=CN2CCOCC2)c(=O)n(C)c(=O)n1C`, the Kd is reported as > 4 mM (inactive). `Cc1nc2ccc(C(=O)O)cc2[nH]1` was tested, and the Kd was > 4 mM (inactive). In the case of `NC(=O)COc1ccccc1O`, the Kd is reported as > 4 mM (inactive). In the case of `NC(=O)CSc1nnnn1-c1ccccc1`, the Kd is reported as > 4 mM (inactive). In the case of `Cc1cc(NC(=O)CSc2nncn2C)no1`, the Kd is reported as > 4 mM (inactive). With `Cc1cc(C(=O)N2CCN(c3ncccn3)CC2)cs1` the Kd was > 4 mM (inactive). In the case of `Cc1nc(N2CCOCC2)[nH]c(=O)c1C`, the Kd is reported as > 4 mM (inactive). For `O=C(O)c1cnc2sc3ccccc3n2c1=O`, the Kd was > 4 mM (inactive). In the case of `Cc1cc(O)c(NC(=O)c2ccco2)cc1C`, the Kd is reported as > 4 mM (inactive). With `Cc1n[nH]c(C)c1CN` the Kd was > 4 mM (inactive). `CCC(C)C(=O)O[C@@H]1C[C@@]2(C)[C@H](c3ccoc3)OC(=O)CC23OC2(C)OC34[C@H](OC(=O)C(C)C)[C@@]3(O)[C@@H](OC(=O)C5(C)OC5C)[C@@]5(C)C[C@]3(O)[C@@](C)([C@H]5CC(=O)OC)C14O2` (some centres undefined) was tested, and the Kd was > 4 mM (inactive). `O=C1CC[C@]23/C=C/C(=O)NCCCCNCCCNC(=O)/C=C/c4ccc(c2c4)O[C@@H]3C1` was tested, and the Kd was > 4 mM (inactive). In the case of `CC(C)NC(=O)c1cc(-n2cnnc2)ccc1Cl`, the Kd is reported as > 4 mM (inactive). For `Nc1ncnc2c1ncn2CCOc1ccccc1`, the Kd was > 4 mM (inactive). With `CCSc1nc2ccccc2n1CC(N)=O` the Kd was > 4 mM (inactive). With `Cc1ccccc1CSc1nncn1N` the Kd was > 4 mM (inactive). `O=C(Nc1ccc2ccccc2c1)c1cnccn1` was tested, and the Kd was > 4 mM (inactive). `CC1(C)C(=O)CC[C@@]2(C)C1C[C@@H](O)[C@@]1(C)C3=CC(=O)O[C@@H](c4ccoc4)[C@]3(C)CCC21` (some centres undefined) was tested, and the Kd was > 4 mM (inactive). `O=C1CN(c2ccccc2)CC(=O)N1` was tested, and the Kd was > 4 mM (inactive). With `Cc1cc(N)ccc1NC(=O)c1ccco1` the Kd was > 4 mM (inactive). In the case of `NCc1cccc2nsnc12`, the Kd is reported as > 4 mM (inactive). For `CN1CCC(NC(=S)NC2CC2)CC1`, the Kd was > 4 mM (inactive). `CC1(c2ccncc2)NC(=O)NC1=O` (centres undefined) was tested, and the Kd was > 4 mM (inactive). In the case of `COc1cccc2c1CCC1=CC(=O)CC[C@@]12C`, the Kd is reported as > 4 mM (inactive). For `NCCC(=O)N[C@@H](Cc1cnc[nH]1)C(=O)O`, the Kd was > 4 mM (inactive). With `OCC1CCCN2CCCCC12` (centres undefined) the Kd was > 4 mM (inactive). `CC(C)(O)P(C)(=O)c1ccccc1` (centres undefined) was tested, and the Kd was > 4 mM (inactive). For `CC(Sc1ncn[nH]1)C(=O)O` (centres undefined), the Kd was > 4 mM (inactive). In the case of `Nc1nc(SCc2ccc3c(c2)OCO3)n[nH]1`, the Kd is reported as > 4 mM (inactive). In the case of `C=C[C@H]1CN2CC[C@H]1C[C@@H]2[C@@H](O)c1ccnc2ccc(OC)cc12`, the Kd is reported as > 4 mM (inactive). In the case of `NC1=NC(=O)/C(=C/c2cccc([N+](=O)[O-])c2)S1`, the Kd is reported as > 4 mM (inactive). For `Cc1csc(CCc2nc(C)cs2)n1`, the Kd was > 4 mM (inactive). In the case of `CCn1c(-c2ccccc2)n[nH]c1=S`, the Kd is reported as > 4 mM (inactive). In the case of `CC(C)NS(=O)(=O)c1ccc(N)cc1`, the Kd is reported as > 4 mM (inactive). In the case of `COC(=O)c1cccc(C(F)(F)F)c1`, the Kd is reported as > 4 mM (inactive). With `CS(=O)(=O)Nc1ccc(C(=O)N2CCCCC2)cc1` the Kd was > 4 mM (inactive). `COc1ccccc1Nc1nncc(=O)[nH]1` was tested, and the Kd was > 4 mM (inactive). `Cc1ccc(OCC(=O)n2cnnc2N)c(C)c1` was tested, and the Kd was > 4 mM (inactive). `Cc1noc(C)c1C(=O)Nc1sc(C)c(C)c1C#N` was tested, and the Kd was > 4 mM (inactive). `O=C1c2ccc(F)cc2C(=O)N1CO` was tested, and the Kd was > 4 mM (inactive). For `CC1(C)CC2(C)N(N)C(=O)CN2C(=S)N1` (centres undefined), the Kd was > 4 mM (inactive).
